From CN111517978A, “环己烯基-dl-天门冬氨酸衍生物及其制备方法、组合物与用途” (Zhongshan Wanhan Pharmaceutical Co ltd, priority 2020, dated 2020)

Legend:
Type in all cases: cell-based
Details in all cases: component A (XP or YS) alone
[1] = system: Clostridium perfringens ATCC13124 (产气荚膜梭状芽孢杆菌ATCC13124)
[2] = system: Stenotrophomonas maltophilia NCTC 13637 (嗜麦芽窄食单胞菌NCTC 13637); test: Antibacterial action (MIC, FICI) against Stenotrophomonas maltophilia NCTC 13637 (Table 18)
[3] = system: Bacteroides fragilis ATCC25285 (脆弱拟杆菌ATCC25285); test: Antibacterial action (MIC, FICI) against Bacteroides fragilis ATCC25285 (Table 26)
[4] = system: Shigella flexneri 2aEW-10 (福氏志贺氏菌2aEW-10); test: Antibacterial action (MIC, FICI) against Shigella flexneri 2aEW-10 (Table 15)
[5] = system: Escherichia coli ATCC25922 (大肠杆菌ATCC25922); test: Antibacterial action (MIC, FICI) against Escherichia coli ATCC25922 (Table 7)
[6] = system: Propionibacterium acnes ATCC11828 (痤疮丙酸杆菌ATCC11828); test: Antibacterial action (MIC, FICI) against Propionibacterium acnes ATCC11828 (Table 21)
[7] = system: Micrococcus lysodeikticus 2665 (溶壁微球菌2665); test: Antibacterial action (MIC, FICI) against Micrococcus lysodeikticus 2665 (Table 4)
[8] = system: Providencia stuartii 57 (斯氏普罗威登斯菌57); test: Antibacterial action (MIC, FICI) against Providencia stuartii 57 (Table 12)
[9] = system: Streptococcus intermedius ATCC27335 (中间链球菌ATCC27335); test: Antibacterial action (MIC, FICI) against Streptococcus intermedius ATCC27335 (Table 20)
[10] = system: Serratia marcescens IFO 3736 (黏质沙雷氏菌IFO 3736); test: Antibacterial action (MIC, FICI) against Serratia marcescens IFO 3736 (Table 10)
[11] = system: Klebsiella pneumoniae NCTC 9632 (肺炎克雷伯菌NCTC 9632); test: Antibacterial action (MIC, FICI) against Klebsiella pneumoniae NCTC 9632 (Table 9)

SMILES	MIC_A [1]	MIC_A [2]	MIC_A [3]	MIC_A [4]	MIC_A [5]	MIC_A [6]	MIC_A [7]	MIC_A [8]	MIC_A [9]	MIC_A [10]	MIC_A [11]
CC(=O)N[C@H]1[C@H](O)C=C(C(=O)O)C[C@@H]1N [化合物15S, (3R,4R,5S)-4-乙酰氨基-5-氨基-3-羟基环己-1-烯-1-羧酸]	681 ng/mL	1138 ng/mL	730 ng/mL	303 ng/mL	354 ng/mL						
CCC(CC)O[C@@H]1C=C(C(=O)O)C[C@H](N)[C@H]1NC(C)=O [化合物10S, (3R,4R,5S)-4-乙酰氨基-5-氨基-3-(戊-3-基氧基)环己-1-烯-1-羧酸]			484 ng/mL	671 ng/mL		737 ng/mL					
CCOC(=O)C1=C[C@@H](OC(CC)CC)[C@H](NC(C)=O)[C@H](NC(CC(=O)O)C(=O)O)C1 (mixture of isomers) [化合物9P, ((1R,5R,6R)-6-乙酰氨基-3-(乙氧基羰基)-5-(戊-3-基氧基)环己-3-烯-1-基)-DL-天门冬氨酸]			16 ng/mL				18 ng/mL	29 ng/mL	9 ng/mL	49 ng/mL	
CCOC(=O)C1=C[C@@H](OC(CC)CC)[C@H](N)[C@@H](N=[N+]=[N-])C1 [化合物21S, 乙基(3R,4R,5S)-4-氨基-5-叠氮基-3-(戊-3-基氧基)环己-1-烯-1-羧酸酯]	884 ng/mL		375 ng/mL	533 ng/mL			407 ng/mL				613 ng/mL
CCC(CC)O[C@@H]1C=C(C(=O)O)C[C@H](NC(CC(=O)O)C(=O)O)[C@H]1NC(C)=O (mixture of isomers) [化合物10P, ((1S,5R,6R)-6-乙酰氨基-3-羧基-5-(戊-3-基氧基)环己-3-烯-1-基)-DL-天门冬氨酸]			6 ng/mL	25 ng/mL		35 ng/mL					
CCOC(=O)C1=C[C@H](OC(CC)CC)[C@H](NC(CC(=O)O)C(=O)O)[C@@H](NC(C)=O)C1 (mixture of isomers) [化合物18P, ((1R,2S,6S)-6-乙酰氨基-4-(乙氧基羰基)-2-(戊-3-基氧基)环己-3-烯-1-基)-DL-天门冬氨酸]			17 ng/mL				6 ng/mL	22 ng/mL	27 ng/mL	53 ng/mL	
CC(=O)N[C@H]1[C@H](O)C=C(C(=O)O)C[C@@H]1NC(CC(=O)O)C(=O)O (mixture of isomers) [化合物15P, ((1S,5R,6R)-6-乙酰氨基-3-羧基-5-羟基环己-3-烯-1-基)-DL-天门冬氨酸]	47 ng/mL	24 ng/mL	24 ng/mL	3 ng/mL	15 ng/mL						
CCOC(=O)C1=C[C@@H](OC(CC)CC)[C@@H](NC(C)=O)[C@H](N)C1 [化合物5S, 乙基(3R,4S,5R)-4-乙酰氨基-5-氨基-3-(戊-3-基氧基)环己-1-烯-1-羧酸酯]			323 ng/mL	483 ng/mL		919 ng/mL					507 ng/mL
CCOC(=O)C1=C[C@@H](OC(CC)CC)[C@H](NC(CC(=O)O)C(=O)O)[C@@H](N=[N+]=[N-])C1 (mixture of isomers) [化合物21P, ((1R,2R,6S)-6-叠氮基-4-(乙氧基羰基)-2-(戊-3-基氧基)环己-3-烯-1-基)-DL-天门冬氨酸]	56 ng/mL		13 ng/mL	17 ng/mL			13 ng/mL				15 ng/mL
CCOC(=O)C1=C[C@@H](OC(CC)CC)[C@H](NC(C)=O)[C@H](N)C1 [化合物9S, 乙基(3R,4R,5R)-4-乙酰氨基-5-氨基-3-(戊-3-基氧基)环己-1-烯-1-羧酸酯]			316 ng/mL				462 ng/mL	440 ng/mL	410 ng/mL	864 ng/mL	
CCOC(=O)C1=C[C@@H](OC(CC)CC)[C@@H](NC(C)=O)[C@H](NC(CC(=O)O)C(=O)O)C1 (mixture of isomers) [化合物5P, ((1R,5R,6S)-6-乙酰氨基-3-(乙氧基羰基)-5-(戊-3-基氧基)环己-3-烯-1-基)-DL-天门冬氨酸]			20 ng/mL	24 ng/mL		15 ng/mL					17 ng/mL
